Measured values taken from ChEMBL document CHEMBL4725221, “Thiazoles, Their Benzofused Systems, and Thiazolidinone Derivatives: Versatile and Promising Tools to Combat Antibiotic Resistance” (J Med Chem, 2020).
Converted amounts (≈) assume the structure as drawn. Blank lines part the entries; values can stand above or below the compound they belong to.

Columns and labels:
Escherichia coli [1] = assay: Antibacterial activity against Escherichia coli AG102 in presence of ciprofloxacin; type: functional
Escherichia coli [2] = assay: Antibacterial activity against Escherichia coli AG102; type: functional
Staphylococcus aureus [3] = assay: Antibacterial activity against Staphylococcus aureus MLS16; type: functional
Micrococcus luteus = assay: Antibacterial activity against Micrococcus luteus; type: functional
Bacillus subtilis [4] = assay: Antibacterial activity against Bacillus subtilis; type: functional
Pseudomonas aeruginosa [5] = assay: Antibacterial activity against Pseudomonas aeruginosa; type: functional
Escherichia coli [6] = assay: Antibacterial activity against Escherichia coli; type: functional
Staphylococcus aureus [7] = assay: Antibacterial activity against Staphylococcus aureus; type: functional
Raoultella planticola = assay: Antibacterial activity against Klebsiella planticola; type: functional
Pseudomonas aeruginosa [8] = assay: Antibacterial activity against Pseudomonas aeruginosa ATCC 27853 after 24 hrs by CLSI protocol based cup-plate agar diffusion method; type: functional
Staphylococcus aureus [9] = assay: Antibacterial activity against Staphylococcus aureus ATCC 49444 after 24 hrs by CLSI protocol based cup-plate agar diffusion method; type: functional
Salmonella typhimurium = assay: Antibacterial activity against Salmonella typhimurium ATCC 14028 after 24 hrs by CLSI protocol based cup-plate agar diffusion method; type: functional, Salmonella enterica subsp. enterica serovar Typhimurium; conditions: Salmonella enterica
Listeria monocytogenes = assay: Antibacterial activity against Listeria monocytogenes ATCC 19115 after 24 hrs by CLSI protocol based cup-plate agar diffusion method; type: functional
Staphylococcus aureus [10] = assay: Antibacterial activity against Staphylococcus aureus MTCC 121 after 7 days by two-fold serial dilution method; type: functional; conditions: MTCC 121, 168 h, time 7 day
Bacillus subtilis [11] = assay: Antibacterial activity against Bacillus subtilis […] after 7 days by two-fold serial dilution method; type: functional; conditions: 168 h, time 7 day
Pseudomonas aeruginosa [12] = assay: Antibacterial activity against Pseudomonas aeruginosa MTCC 2453 after 7 days by two-fold serial dilution method; type: functional; conditions: MTCC 2453, 168 h, time 7 day
Escherichia coli [13] = assay: Antibacterial activity against Escherichia coli MTCC 40 after 7 days by two-fold serial dilution method; type: functional; conditions: MTCC 40, 168 h, time 7 day
Staphylococcus aureus [14] = assay: Antibacterial activity against Staphylococcus aureus ATCC 6538 by CLSI protocol based microdilution method; type: functional, organism-based
Staphylococcus aureus [15] = assay: Antibacterial activity against Staphylococcus aureus ATCC 25923 by CLSI protocol based microdilution method; type: functional, organism-based
Enterococcus faecalis [16] = assay: Antibacterial activity against Enterococcus faecalis; type: functional
Enterococcus faecalis [17] = assay: Antibiofilm activity against Enterococcus faecalis; type: functional
[18] = system: Staphylococcus saprophyticus; assay: Antibacterial activity against Staphylococcus saprophyticus; type: functional

Compound: Cc1ccc(CC(=O)Nc2ccc(-c3nc4ccccc4s3)cc2)cc1
MIC (Escherichia coli [1]): 0.004 µg/mL
MIC (Escherichia coli [2]): 512 µg/mL (≈ 1430 µM)

Compound: O=c1oc2ccccc2cc1-c1nn(-c2nc3ccccc3s2)cc1/C=N/Nc1nc(-c2ccc(-c3ccccc3)cc2)cs1
MIC (Staphylococcus aureus [3]): 7.8 µg/mL (≈ 12.5 µM)
MIC (Micrococcus luteus): 7.8 µg/mL (≈ 12.5 µM)
MIC (Bacillus subtilis [4]): 7.8 µg/mL (≈ 12.5 µM)
MIC (Pseudomonas aeruginosa [5]): 7.8 µg/mL (≈ 12.5 µM)
MIC (Escherichia coli [6]): 7.8 µg/mL (≈ 12.5 µM)
MIC (Staphylococcus aureus [7]): 7.8 µg/mL (≈ 12.5 µM)
MIC (Raoultella planticola): 31.2 µg/mL (≈ 50.1 µM)

Compound: Cc1nc(-c2ccccc2)sc1-c1nnc(S)n1/N=C\c1ccc(Br)cc1
MIC (Pseudomonas aeruginosa [8]): 1.9 µg/mL (≈ 4.16 µM)
MIC (Staphylococcus aureus [9]): 31.2 µg/mL (≈ 68.4 µM)
MIC (Salmonella typhimurium): 62.5 µg/mL (≈ 137 µM)
MIC (Listeria monocytogenes): 1.9 µg/mL (≈ 4.16 µM)

Compound: O=C(CCCCc1ccccc1)Nc1ccc(-c2nc3ccccc3s2)cc1
MIC (Escherichia coli [1]): 0.004 µg/mL
MIC (Escherichia coli [2]): 512 µg/mL (≈ 1320 µM)

Compound: COCCn1cc(-c2nc(-c3cn(C)c4ccccc34)cs2)c2cc(OC)ccc21
IC50 (Staphylococcus aureus [14]): 11.5 µg/mL (≈ 27.5 µM)
IC50 (Staphylococcus aureus [15]): 1.2 µg/mL (≈ 2.87 µM)

Compound: COc1ccc(CC(=O)Nc2ccc(-c3nc4ccccc4s3)cc2)cc1
MIC (Escherichia coli [1]): 0.008 µg/mL
MIC (Escherichia coli [2]): 256 µg/mL (≈ 684 µM)

Compound: COCCn1cc(-c2csc(-c3cn(C)c4ccc(Br)cc34)n2)c2ccccc21
IC50 (Staphylococcus aureus [15]): 2.5 µg/mL (≈ 5.36 µM)

Compound: COc1ccccc1/C=N\n1c(S)nnc1-c1sc(-c2ccccc2)nc1C
MIC (Pseudomonas aeruginosa [8]): 1.9 µg/mL (≈ 4.66 µM)
MIC (Staphylococcus aureus [9]): 31.2 µg/mL (≈ 76.6 µM)
MIC (Salmonella typhimurium): 62.5 µg/mL (≈ 153 µM)
MIC (Listeria monocytogenes): 1.9 µg/mL (≈ 4.66 µM)

Compound: O=[N+]([O-])c1ccc(-c2csc(-c3cccc(-c4csc(-c5ccccc5)n4)c3)n2)cc1
MIC (Enterococcus faecalis [16]): 62 µg/mL (≈ 140 µM)
MBIC (Enterococcus faecalis [17]): 0.002 mg/mL
MIC [18]: 32 µg/mL (≈ 72.5 µM)

Compound: CCc1ccc(C(=O)Nc2ccc(-c3nc4ccccc4s3)cc2)cc1
MIC (Escherichia coli [1]): 0.016 µg/mL
MIC (Escherichia coli [2]): 128 µg/mL (≈ 357 µM)

Compound: O=C(Cc1ccccc1)Nc1ccc(-c2nc3ccccc3s2)cc1
MIC (Escherichia coli [1]): 0.125 µg/mL
MIC (Escherichia coli [2]): 256 µg/mL (≈ 743 µM)

Compound: O=C(NN1C(=O)/C(=C/c2ccccc2)SC1c1ccccc1)c1ccc(-c2ccccc2)cc1 (stereo unspecified)
MIC (Staphylococcus aureus [10]): 6.25 µg/mL (≈ 13.5 µM)
MIC (Bacillus subtilis [11]): 3.12 µg/mL (≈ 6.74 µM)
MIC (Pseudomonas aeruginosa [12]): 6.25 µg/mL (≈ 13.5 µM)
MIC (Escherichia coli [13]): 6.25 µg/mL (≈ 13.5 µM)

Compound: O=C(NN1C(=O)/C(=C/c2ccccc2)SC1c1cccc(F)c1)c1ccc(-c2ccccc2)cc1 (stereo unspecified)
MIC (Staphylococcus aureus [10]): 6.25 µg/mL (≈ 13 µM)
MIC (Bacillus subtilis [11]): 3.12 µg/mL (≈ 6.49 µM)
MIC (Pseudomonas aeruginosa [12]): 12.5 µg/mL (≈ 26 µM)
MIC (Escherichia coli [13]): 6.25 µg/mL (≈ 13 µM)

Now from value to compound, other results behind:

MIC (Escherichia coli [1]): 0.03 µg/mL
MIC (Escherichia coli [2]): 256 µg/mL (≈ 680 µM)
Compound: O=C(Cc1ccc(F)cc1)Nc1ccc(Cc2nc3ccccc3s2)cc1

MIC (Staphylococcus aureus [10]): 6.25 µg/mL (≈ 12.7 µM)
MIC (Bacillus subtilis [11]): 1.56 µg/mL (≈ 3.17 µM)
MIC (Pseudomonas aeruginosa [12]): 6.25 µg/mL (≈ 12.7 µM)
MIC (Escherichia coli [13]): 6.25 µg/mL (≈ 12.7 µM)
Compound: COc1cccc(/C=C2\SC(c3ccccc3)N(NC(=O)c3ccc(-c4ccccc4)cc3)C2=O)c1 (stereo unspecified)

MIC (Staphylococcus aureus [10]): 3.12 µg/mL (≈ 5.03 µM)
MIC (Bacillus subtilis [11]): 3.12 µg/mL (≈ 5.03 µM)
MIC (Pseudomonas aeruginosa [12]): 6.25 µg/mL (≈ 10.1 µM)
MIC (Escherichia coli [13]): 6.25 µg/mL (≈ 10.1 µM)
Compound: O=C(NN1C(=O)/C(=C/c2cccc(Br)c2)SC1c1cccc(Br)c1)c1ccc(-c2ccccc2)cc1 (stereo unspecified)

MIC (Escherichia coli [1]): 0.03 µg/mL
MIC (Escherichia coli [2]): 256 µg/mL (≈ 775 µM)
Compound: O=C(Nc1ccc(-c2nc3ccccc3s2)cc1)c1ccccc1

MIC (Pseudomonas aeruginosa [8]): 1.9 µg/mL (≈ 4.95 µM)
MIC (Staphylococcus aureus [9]): 15.6 µg/mL (≈ 40.7 µM)
MIC (Salmonella typhimurium): 62.5 µg/mL (≈ 163 µM)
MIC (Listeria monocytogenes): 1.9 µg/mL (≈ 4.95 µM)
Compound: Cc1nc(-c2ccccc2)sc1-c1nnc(S)n1/N=C\c1cccs1

MIC (Escherichia coli [1]): 0.03 µg/mL
MIC (Escherichia coli [2]): 128 µg/mL (≈ 353 µM)
Compound: O=C(Nc1ccc(Cc2nc3ccccc3s2)cc1)c1ccc(F)cc1

MIC (Enterococcus faecalis [16]): 125 µg/mL (≈ 315 µM)
MIC [18]: 32 µg/mL (≈ 80.7 µM)
Compound: c1ccc(-c2csc(-c3cccc(-c4csc(-c5ccccc5)n4)c3)n2)cc1
MBIC (Enterococcus faecalis [17]): 0.002 mg/mL

IC50 (Staphylococcus aureus [14]): 5.2 µg/mL (≈ 11.3 µM)
IC50 (Staphylococcus aureus [15]): 3.9 µg/mL (≈ 8.5 µM)
Compound: CC(C)(C)OC(=O)NCCn1cc(-c2nc(-c3c[nH]c4ccccc34)cs2)c2ccccc21

MIC (Staphylococcus aureus [10]): 3.12 µg/mL (≈ 5.76 µM)
MIC (Bacillus subtilis [11]): 6.25 µg/mL (≈ 11.5 µM)
MIC (Pseudomonas aeruginosa [12]): 6.25 µg/mL (≈ 11.5 µM)
MIC (Escherichia coli [13]): 12.5 µg/mL (≈ 23.1 µM)
Compound: O=C(NN1C(=O)/C(=C/c2cccc(Br)c2)SC1c1ccccc1)c1ccc(-c2ccccc2)cc1 (stereo unspecified)

MIC (Staphylococcus aureus [10]): 6.25 µg/mL (≈ 11.9 µM)
MIC (Bacillus subtilis [11]): 6.25 µg/mL (≈ 11.9 µM)
MIC (Pseudomonas aeruginosa [12]): 3.12 µg/mL (≈ 5.94 µM)
MIC (Escherichia coli [13]): 12.5 µg/mL (≈ 23.8 µM)
Compound: O=C(NN1C(=O)/C(=C/c2cccc([N+](=O)[O-])c2)SC1c1cccc(F)c1)c1ccc(-c2ccccc2)cc1 (stereo unspecified)

MIC (Enterococcus faecalis [16]): 62 µg/mL (≈ 145 µM)
MIC [18]: 125 µg/mL (≈ 293 µM)
Compound: COc1ccc(-c2csc(-c3cccc(-c4csc(-c5ccccc5)n4)c3)n2)cc1
MBIC (Enterococcus faecalis [17]): 0.004 mg/mL

MIC (Escherichia coli [1]): 0.06 µg/mL
MIC (Escherichia coli [2]): 64 µg/mL (≈ 172 µM)
Compound: CCc1ccc(C(=O)Nc2ccc(Cc3nc4ccccc4s3)cc2)cc1

MIC (Staphylococcus aureus [3]): 7.8 µg/mL (≈ 13.9 µM)
MIC (Micrococcus luteus): 3.9 µg/mL (≈ 6.96 µM)
MIC (Bacillus subtilis [4]): 1.9 µg/mL (≈ 3.39 µM)
MIC (Pseudomonas aeruginosa [5]): 3.9 µg/mL (≈ 6.96 µM)
MIC (Escherichia coli [6]): 7.8 µg/mL (≈ 13.9 µM)
MIC (Staphylococcus aureus [7]): 7.8 µg/mL (≈ 13.9 µM)
Compound: Cc1ccc(-c2csc(N/N=C/c3cn(-c4nc5ccccc5s4)nc3-c3cc4ccccc4oc3=O)n2)cc1
MIC (Raoultella planticola): 3.9 µg/mL (≈ 6.96 µM)

MIC (Pseudomonas aeruginosa [8]): 1.9 µg/mL (≈ 4.24 µM)
MIC (Staphylococcus aureus [9]): 31.2 µg/mL (≈ 69.5 µM)
MIC (Salmonella typhimurium): 62.5 µg/mL (≈ 139 µM)
MIC (Listeria monocytogenes): 1.9 µg/mL (≈ 4.24 µM)
Compound: CCN(CC)c1ccc(/C=N\n2c(S)nnc2-c2sc(-c3ccccc3)nc2C)cc1
